Laboratory results from PMC7745444 (ACS Omega, 2020).

Legend:
β-galactosidase = β-galactosidase (Escherichia coli, UniProt P00722); assay: p-nitrophenyl galactopyranoside hydrolysis, absorbance at […] nm; type: biochemical
β-glucosidase = assay: p-nitrophenyl glucopyranoside hydrolysis, absorbance at […] nm; type: biochemical, Prunus dulcis

Chain of β-galactosidase (P00722 2-1024): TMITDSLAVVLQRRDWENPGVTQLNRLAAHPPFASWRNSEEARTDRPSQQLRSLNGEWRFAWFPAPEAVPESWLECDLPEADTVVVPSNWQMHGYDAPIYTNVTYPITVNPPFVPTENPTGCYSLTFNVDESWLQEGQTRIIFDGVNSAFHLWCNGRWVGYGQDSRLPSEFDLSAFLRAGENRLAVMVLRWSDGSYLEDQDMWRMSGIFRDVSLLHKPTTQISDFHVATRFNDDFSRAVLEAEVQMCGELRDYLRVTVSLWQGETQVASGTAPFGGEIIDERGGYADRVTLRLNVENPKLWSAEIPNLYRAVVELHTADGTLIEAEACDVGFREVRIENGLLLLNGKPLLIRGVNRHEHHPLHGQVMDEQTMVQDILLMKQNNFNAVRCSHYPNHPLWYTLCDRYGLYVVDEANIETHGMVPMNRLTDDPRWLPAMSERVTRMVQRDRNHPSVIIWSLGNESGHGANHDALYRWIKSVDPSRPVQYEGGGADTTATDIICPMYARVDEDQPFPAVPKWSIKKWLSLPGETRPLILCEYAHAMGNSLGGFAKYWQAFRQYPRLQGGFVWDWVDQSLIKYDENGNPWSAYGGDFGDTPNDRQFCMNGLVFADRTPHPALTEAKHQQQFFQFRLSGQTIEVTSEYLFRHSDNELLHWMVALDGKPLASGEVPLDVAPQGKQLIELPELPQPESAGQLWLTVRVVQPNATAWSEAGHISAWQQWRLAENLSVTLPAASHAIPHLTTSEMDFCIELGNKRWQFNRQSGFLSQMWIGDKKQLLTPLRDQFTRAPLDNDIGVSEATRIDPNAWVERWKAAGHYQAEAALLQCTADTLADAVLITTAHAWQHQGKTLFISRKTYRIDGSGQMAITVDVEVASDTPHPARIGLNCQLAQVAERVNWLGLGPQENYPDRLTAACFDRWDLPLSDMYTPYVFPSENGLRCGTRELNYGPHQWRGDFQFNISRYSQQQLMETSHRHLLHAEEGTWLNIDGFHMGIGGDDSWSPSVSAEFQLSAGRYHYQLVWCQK

Row | Structure (SMILES) | Ki (β-galactosidase) [mM] | Ki (β-glucosidase) [mM]
1 | O=C(O)[C@H]1[C@@H]2CN[C@H](CO)[C@@H](O)[C@@H]21 [8a, (1R,4R,5S,6S,7S)-5-Hydroxy-4-(hydroxymethyl)-3-azabicyclo[4.1.0]heptane-7-carboxylic Acid] | 1.18 | –
2 | CN1C[C@H]2[C@H](CO)[C@H]2[C@H](O)[C@H]1CO [compound 9, (1S,4R,5S,6S,7S)-4,7-bis(Hydroxymethyl)-3-methyl-3-azabicyclo[4.1.0]heptan-5-ol] | – | 4.43
